According to ChEMBL document CHEMBL4840328, “The Phytochemical Scoulerine Inhibits Aurora Kinase Activity to Induce Mitotic and Cytokinetic Defects” (J Nat Prod, 2021):
Active and inactive are the calls of the source. No cut-off for these calls is given here.

Tests used:
[1] = test system: HRPE; experiment: Induction of mitotic arrest in HRPE Cells overexpressing MYC at 20 uM by acridine orange staining based fluorescence microscopic analysis; type: functional, tissue-based; details: Homo sapiens
[2] = test system: HRPE; experiment: Cytotoxicity against HRPE cells overexpressing MYC-H2BGFP assessed as cell viability measured after 72 hrs by MTT assay; type: functional, cell-based; details: Homo sapiens
[3] = test system: HRPE; experiment: Induction of cell cycle arrest in human RPE cells expressing MYC-Bcl2 assessed as disorganized NUMA1 at 4 uM for 6 hrs by immunostaining analysis; type: functional, cell-based
[4] = test system: SW480; experiment: Cytotoxicity against human SW480 cells assessed as cell viability measured after 72 hrs by MTT assay; type: functional, cell-based; details: SW480, 72 h
[5] = Induction of mitotic arrest in HRPE Cells overexpressing MYC assessed as polyploidy measured for 48 hrs by acridine orange staining based fluorescence microscopic analysis; type: functional, tissue-based, Homo sapiens
[6] = test system: HeLa; experiment: Cytotoxicity against human HeLa cells assessed as cell viability measured after 72 hrs by MTT assay; type: functional, cell-based
[7] = Cytotoxicity against human wild type p53HCT116 cells assessed as cell viability measured after 72 hrs by MTT assay; type: functional, cell-based; details: p53HCT116, 72 h
[8] = Induction of mitotic arrest in HRPE Cells overexpressing MYC measured for 24 hrs by acridine orange staining based fluorescence microscopic analysis; type: functional, tissue-based, Homo sapiens
[9] = test system: HRPE; experiment: Induction of mitotic arrest in HRPE Cells overexpressing MYC-Bcl2 measured for 46 to 62 hrs by time-lapse analysis; type: functional, tissue-based; details: Homo sapiens, dose 2-4 µM, time 46-62 hrs
[10] = test system: HRPE; experiment: Induction of cell cycle arrest in human RPE cells expressing MYC-Bcl2 assessed as foci in colocalized Aurora kinase A at 4 uM for 6 hrs by immunostaining analysis; type: functional, cell-based
[11] = test system: HRPE; experiment: Induction of cell cycle arrest in HRPE cells overexpressing MYC/Bcl2 assessed as centrosome amplification measured after 6 hrs by DAPI staining based analysis; type: functional; details: Homo sapiens
[12] = test system: MDA-MB-231; experiment: Cytotoxicity against human MDA-MB-231 cells assessed as cell viability measured after 72 hrs by MTT assay; type: functional, cell-based; details: MDA-MB-231, 72 h
[13] = Cytotoxicity against human HCT116-p53-null cells assessed as cell viability measured after 72 hrs by MTT assay; type: functional, cell-based
[14] = Cytotoxicity against HRPE cells overexpressing MYC assessed as cell viability measured after 72 hrs by MTT assay; type: functional, cell-based; details: Homo sapiens
[15] = test system: HRPE; experiment: Induction of cell cycle arrest in human RPE cells expressing MYC-Bcl2 assessed as foci in colocalized gamma-tubulin at 4 uM for 6 hrs by immunostaining analysis; type: functional, cell-based
[16] = test system: A549; experiment: Cytotoxicity against human A549 cells assessed as cell viability measured after 72 hrs by MTT assay; type: functional, cell-based; details: A549, 72 h
[17] = test system: NCI-H460; experiment: Cytotoxicity against human NCI-H460 cells assessed as centrosome amplification and declustering by measuring multiple foci by immunostaining analysis; type: functional, cell-based; details: time 72.0 hrs
[18] = target: Aurora kinase B (Homo sapiens) (UniProt Q96GD4); experiment: Inhibition of AURKB (unknown origin) in HRPE cells overexpressing MYC/Bcl2 assessed as decrease in H3PS10 fluorescence intensity at 20 uM measured for 6 hrs by immunostaining based fluorescence microscopic analysis; type: cell-based
Aurora kinase B (Homo sapiens), sequence (Q96GD4 whole entry): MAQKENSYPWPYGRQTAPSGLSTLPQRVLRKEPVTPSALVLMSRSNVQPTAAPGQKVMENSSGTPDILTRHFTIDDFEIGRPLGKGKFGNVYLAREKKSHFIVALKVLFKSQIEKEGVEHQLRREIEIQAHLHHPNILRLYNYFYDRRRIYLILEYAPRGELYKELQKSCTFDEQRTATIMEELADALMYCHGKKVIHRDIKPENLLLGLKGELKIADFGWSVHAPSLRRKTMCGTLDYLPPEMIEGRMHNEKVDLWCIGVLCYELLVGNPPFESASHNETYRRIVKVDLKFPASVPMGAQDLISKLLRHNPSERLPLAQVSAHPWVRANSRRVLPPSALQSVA

[19] = target: T1, Aurora kinase A (Homo sapiens) (UniProt O14965); experiment: Inhibition of AURKA (unknown origin) in HRPE cells overexpressing MYC/Bcl2 assessed as inhibition of autophosphorylation of threonine 288 at 20 uM measured for 6 hrs by immunostaining based fluorescence microscopic analysis; type: cell-based
T1 sequence (whole entry): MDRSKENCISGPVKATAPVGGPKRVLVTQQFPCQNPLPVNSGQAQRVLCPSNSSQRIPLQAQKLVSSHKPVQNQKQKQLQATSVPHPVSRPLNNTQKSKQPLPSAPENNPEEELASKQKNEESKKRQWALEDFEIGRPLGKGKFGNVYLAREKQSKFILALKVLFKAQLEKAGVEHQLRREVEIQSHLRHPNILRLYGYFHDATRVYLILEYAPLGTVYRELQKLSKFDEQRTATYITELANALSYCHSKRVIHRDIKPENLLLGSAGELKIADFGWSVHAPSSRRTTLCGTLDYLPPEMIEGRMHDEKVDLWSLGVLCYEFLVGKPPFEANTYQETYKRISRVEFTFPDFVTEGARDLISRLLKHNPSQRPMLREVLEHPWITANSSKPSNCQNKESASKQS

[20] = test system: NCI-H23; experiment: Cytotoxicity against human NCI-H23 cells harboring MYC assessed as cell viability measured after 72 hrs by MTT assay; type: functional, cell-based; details: NCI-H23, 72 h
[21] = test system: HRPE; experiment: Induction of cell cycle arrest in human RPE cells expressing MYC-Bcl2 assessed as disorganized alpha-tubulin at 4 uM for 6 hrs by immunostaining analysis; type: functional, cell-based
[22] = Cytotoxicity against HRPE cells overexpressing MYC/Bcl2 assessed as cell viability measured after 72 hrs by MTT assay; type: functional, cell-based; details: Homo sapiens
[23] = test system: HRPE; experiment: Induction of mitotic arrest in HRPE Cells overexpressing MYC assessed as polyploidy at 5 uM by acridine orange staining based fluorescence microscopic analysis; type: functional, tissue-based; details: Homo sapiens

Compound: COc1cc2c(cc1O)[C@@H]1Cc3ccc(O)c(OC)c3CN1CC2
- Activity [1]: inactive

Compound: COc1cc(Nc2ncc3c(n2)-c2ccc(Cl)cc2C(c2c(F)cccc2OC)=NC3)ccc1C(=O)O
- Activity [2]: Active

Compound: COc1cc2c(cc1O)[C@@H]1Cc3ccc(OC)c(O)c3CN1CC2 [SCOULERINE]
- Activity [1]: inactive
- Activity [3]: Active
- IC50 [4]: 4.24 µM
- EC50 [5]: 3.6 µM
- IC50 [6]: 6.74 µM
- IC50 [7]: 6.81 µM
- EC50 [8]: 3.54 µM
- Activity [9]: Dose-Dependent Effect
- Activity [10]: Active
- Activity [11]: inactive
- IC50 [12]: 7.32 µM
- IC50 [13]: 5.48 µM
- Activity [2]: inactive
- IC50 [14]: 4.07 µM
- Activity [15]: Active
- IC50 [16]: 26.3 µM
- Activity [17]: Active
- inhibition [18]: Active
- inhibition [19]: Active
- IC50 [20]: 2.54 µM
- Activity [21]: Active
- IC50 [22]: 4.62 µM
- Activity [23]: Active

Compound: CCN(CCCOc1ccc2c(Nc3cc(CC(=O)Nc4cccc(F)c4)[nH]n3)ncnc2c1)CCOP(=O)(O)O
- Activity [3]: inactive

Compound: COc1cc2c(cc1OC)[C@@H]1Cc3ccc(OC)c(OC)c3CN1CC2
- Activity [1]: inactive
